Data: publication PMC2643003, “Improved Learning and Memory in Aged Mice Deficient in Amyloid β-Degrading Neutral Endopeptidase” (PLoS ONE, 2009)

Legend:
NEP [1] = settings: rats and mice after treatment with thiorphan; cited from earlier work
Text: Consistent with previous studies showing a broad spectrum of peptidases inhibited by that peptidase inhibitor [18], we hypothesized that there were other factors inhibited by thiorphan as a requisite for murine Aβ accumulation.

NEP [2] = settings: infusion into hippocampus or cortical ventricle, young rats, 4 weeks, local Aβ accumulation; cited from earlier work
Text: The underlying mechanisms leading to better learning and improved LTP are still speculative. However, this improved learning seems more likely to be an Aβ-independent effect in our mouse model.

recombinant (rc) NEP = target: T1, recombinant (rc) NEP (Homo sapiens, UniProt P08473); assay: HPLC-monitored peptide degradation by recombinant NEP; assay type: in vitro ADME; settings: peptide 5 µM, rcNEP 20 ng (R&D Systems), over 120 min, stopped with 0.35 M perchloric acid, heat-inactivated control, HPLC isocratic elution, n≥3; values only in Figure 5a
T1 construct: purchased R&D Systems GmbH (Wiesbaden, Germany)
Experimental: The reactions were stopped by adding 0.35 M perchloric acid. In parallel assays, heat-inactivated probes (5 min at 90°C) were used as a control. After centrifugation of sedimented proteins, HPLC analyses were performed by isocratic elution as described by Siems et al. [45]. […] The reactions were stopped by addition of 0.35 M perchloric acid. In parallel assays, heat-inactivated NEP (5 min at 90°C) was used as a control. HPLC analysis was performed by isocratic elution as described [45].
The production of brain membranes and the HPLC-monitored peptide degradation procedures were performed as described in detail by Siems et al. [45]. […] The recombinant NEP was obtained from R&D Systems GmbH (Wiesbaden, Germany).

[3] = assay type: in vitro ADME, mice
Experimental: Figure 5 NEP-dependent neuropeptide degradation. […] The reactions were stopped by adding 0.35 M perchloric acid. In parallel assays, heat-inactivated probes (5 min at 90°C) were used as a control. After centrifugation of sedimented proteins, HPLC analyses were performed by isocratic elution as described by Siems et al.. […] The reactions were stopped by addition of 0.35 M perchloric acid. In parallel assays, heat-inactivated NEP (5 min at 90°C) was used as a control. HPLC analysis was performed by isocratic elution as described. The significance of differences was calculated by two-sided t test; n≥4; **P<0.01. (c) For galanin and GLP-1 immunohistochemistry, slices were incubated with the specific antibodies, followed by incubation with biotinylated anti-rabbit IgG. Immunoreactive products were visualized by the nickel ammonium sulfate-intensified diaminobenzidine reaction. Unequivocally stained regions in the murine cortex were localized and defined as ROIs (regions of interest), and luminometrically compared with adjacent regions without detectable staining (reference ROIs) (for both regions n = 40). The calculated differences were shown as mean±s.e.m.). Significant differences were calculated by Student's t test, indicated by **P<0.01, ***P<0.001.
The production of brain membranes and the HPLC-monitored peptide degradation procedures were performed as described in detail by Siems et al.. […]

[4] = test system: associative and spatial learning; settings: injected intracerebroventricularly; cited from earlier work
Text: It has been shown that NEP targets a variety of peptides involved in learning and memory such as oxytocin [36], NPY [37] or CCK [38]. Thus, marked improvement in learning and memory in very old NEP-deficient mice if compared with their aged-matched controls appears to be explained best by these NEP-degradable neuropeptides. Nevertheless, the known catalytic properties of NEP - it preferentially hydrolyses oligopeptides by cleaving on the N-terminal side of hydrophobic amino acid residues - and the knowledge of further potential learning-associated peptides [39]–[42] motivated us to t ...

T1 sequence (P08473 whole entry): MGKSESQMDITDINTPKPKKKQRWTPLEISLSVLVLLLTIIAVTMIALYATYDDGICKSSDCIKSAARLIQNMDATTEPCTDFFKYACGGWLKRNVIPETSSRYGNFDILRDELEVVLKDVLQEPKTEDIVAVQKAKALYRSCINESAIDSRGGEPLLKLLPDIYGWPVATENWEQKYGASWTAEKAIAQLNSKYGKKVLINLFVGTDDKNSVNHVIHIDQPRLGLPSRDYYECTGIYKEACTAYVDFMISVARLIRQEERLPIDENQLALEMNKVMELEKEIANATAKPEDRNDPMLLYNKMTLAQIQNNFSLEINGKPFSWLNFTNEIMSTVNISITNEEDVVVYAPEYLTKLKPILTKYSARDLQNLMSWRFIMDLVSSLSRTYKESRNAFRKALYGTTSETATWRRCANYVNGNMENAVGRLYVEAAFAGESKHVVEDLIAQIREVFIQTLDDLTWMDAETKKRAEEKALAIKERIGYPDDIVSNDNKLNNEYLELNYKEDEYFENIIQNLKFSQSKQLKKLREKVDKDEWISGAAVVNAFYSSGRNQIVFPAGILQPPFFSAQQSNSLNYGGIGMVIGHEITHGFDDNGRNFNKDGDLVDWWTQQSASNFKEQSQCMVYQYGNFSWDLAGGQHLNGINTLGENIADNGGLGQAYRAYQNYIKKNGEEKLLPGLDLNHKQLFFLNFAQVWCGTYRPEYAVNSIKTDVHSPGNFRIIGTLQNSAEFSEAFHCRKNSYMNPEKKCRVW

Row | Molecule | deposition of endogenous Aβ (NEP [1]) | effect on learning and memory (NEP [2]) | degradation by rcNEP (recovery in %) (recombinant (rc) NEP) | peptide degradation in brain membranes of wild-type (+/+) and knockout mice (−/−) [3] | effect on associative and spatial learning [4]
1 | O=C(O)CNC(=O)C(CS)Cc1ccccc1 (stereo not drawn) [thiorphan] | plaque formation and fibrillization | impaired learning and memory |  |  | 
2 | galanin |  |  | identified galanin as a NEP substrate | identified galanin as a NEP substrate | 
3 | glucagon-like peptide 1 [GLP-1] |  |  |  | reduced rate of GLP-1 degradation in brains lacking NEP | improve associative and spatial learning
